Inconclusive results and toxic doses are left out.

The test relates to CD2F1 mice, L1210 leukemia ip, survival T/C. As to the kind of experiment: NCI In Vivo Anticancer Drug Screen. Data for tumor model L1210 Leukemia (intraperitoneal) in CD2F1 (CDF1) mice. The conditions noted are these: higher = longer survival. A digest of the protocol: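 Antitumor effect is scored in animals hosting a serially transplanted tumor. Values compare compound-dosed animals against vehicle-only controls as a simple quotient.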

Setting [1] is: endpoint: mean survival time, dose: 25.0 mg/kg/injection, schedule: Q04DX003 (ip), vehicle: saline.
Where [2] appears, read: endpoint: mean survival time, dose: 50.0 mg/kg/injection, schedule: Q04DX003 (ip), vehicle: saline.
Setting [3] is: endpoint: mean survival time, dose: 100.0 mg/kg/injection, schedule: Q01DX009 (ip), vehicle: saline with Tween-80.
Setting [4] is: endpoint: mean survival time, dose: 100.0 mg/kg/injection, schedule: Q04DX003 (ip), vehicle: saline with Tween-80.
Setting [5] is: endpoint: mean survival time, dose: 200.0 mg/kg/injection, schedule: Q01DX009 (ip), vehicle: saline with Tween-80.
Where [6] appears, read: endpoint: mean survival time, dose: 200.0 mg/kg/injection, schedule: Q04DX003 (ip), vehicle: saline with Tween-80.
[7] abbreviates: endpoint: mean survival time, dose: 400.0 mg/kg/injection, schedule: Q01DX009 (ip), vehicle: saline with Tween-80.
[8] abbreviates: endpoint: mean survival time, dose: 400.0 mg/kg/injection, schedule: Q04DX003 (ip), vehicle: saline with Tween-80.
Setting [9] is: endpoint: mean survival time, dose: 50.0 mg/kg/injection, schedule: Q01DX009 (ip), vehicle: saline with Tween-80.
The mark [10] stands for this setting: endpoint: mean survival time, dose: 75.0 mg/kg/injection, schedule: Q01DX001 (ip), vehicle: saline.

`Cc1nc(C)c(Br)s1`: the T/C is 112 % of control under setting [1]; 104 % of control under setting [2]; 106 % of control (endpoint: mean survival time, dose: 100.0 mg/kg/injection, schedule: Q04DX003 (ip), vehicle: saline).
For the compound `O=C(c1ccccc1)C(C(c1ccc([N+](=O)[O-])cc1)N1CCOCC1)N1CCOCC1` (stereo unspecified), the T/C by setting is: under setting [3], 97 % of control; under setting [4], 101 % of control; under setting [5], 96 % of control; under setting [6], 101 % of control; under setting [7], 96 % of control; under setting [8], 108 % of control.
For the compound `O=C(O)/C=C/C(=O)Nc1ccc(N=Nc2ccccc2)cc1`, the T/C reads like this: under setting [4], 93 % of control; under setting [6], 98 % of control.
As to `CC1=CC(=O)C(Sc2ccc(C)cc2)=CC1=O`, the T/C under setting [9] was 94 % of control.
With `CC(CNC1CCCCC1)OC(=O)c1ccc(N)cc1` (stereo unspecified), the T/C under setting [10] was 102 % of control.
On to `CCNC(=S)N1c2c(nc(N)[nH]c2=O)NCC1CNc1ccc(C(=O)NC(CCC(=O)O)C(=O)O)cc1` (stereo unspecified), for which the T/C runs as follows: (endpoint: mean survival time, dose: 100.0 mg/kg/injection, schedule: Q01DX001 (ip), vehicle: alkali diluted with saline) 98 % of control; (endpoint: mean survival time, dose: 200.0 mg/kg/injection, schedule: Q01DX001 (ip), vehicle: alkali diluted with saline) 101 % of control; (endpoint: mean survival time, dose: 400.0 mg/kg/injection, schedule: Q01DX001 (ip), vehicle: alkali diluted with saline) 103 % of control.
For `CCOC(=O)C(=O)Nc1onc(C)c1NC(=O)C(=O)OCC`, the T/C by setting is: under setting [4], 100 % of control; under setting [6], 107 % of control; under setting [8], 96 % of control.
Regarding `CCCCCCCCCCCCCCCC(=O)NCCOC(C)=O`, the T/C was 89 % of control under setting [9]; 92 % of control under setting [3]; 92 % of control under setting [4]; 93 % of control under setting [5]; 95 % of control under setting [6]; 97 % of control under setting [8].
With `CCN(CCc1ccc(N)cc1)C(Cc1ccccc1)c1cccc(OC)c1` (stereo unspecified), the T/C reads like this: (endpoint: mean survival time, dose: 12.5 mg/kg/injection, schedule: Q01DX009 (ip), vehicle: saline) 102 % of control; (endpoint: mean survival time, dose: 12.5 mg/kg/injection, schedule: Q04DX003 (ip), vehicle: saline) 103 % of control; (endpoint: mean survival time, dose: 25.0 mg/kg/injection, schedule: Q01DX009 (ip), vehicle: saline) 97 % of control; under setting [1], 97 % of control; (endpoint: mean survival time, dose: 50.0 mg/kg/injection, schedule: Q01DX009 (ip), vehicle: saline) 100 % of control; under setting [2], 95 % of control.
Take `[Cl][Pt+2][Cl].[NH-]N1CCN([NH-])CC1`: the T/C runs as follows: (endpoint: mean survival time, dose: 12.5 mg/kg/injection, schedule: Q04DX003 (ip), vehicle: saline with Tween-80) 105 % of control; (endpoint: mean survival time, dose: 25.0 mg/kg/injection, schedule: Q04DX003 (ip), vehicle: saline with Tween-80) 90 % of control; (endpoint: mean survival time, dose: 50.0 mg/kg/injection, schedule: Q04DX003 (ip), vehicle: saline with Tween-80) 98 % of control; under setting [4], 94 % of control; under setting [6], 102 % of control.
Consider `O=C1CC2OCCC3CN4CCC56c7ccccc7N1C5C2C3CC46` (stereo unspecified), for which the T/C under setting [10] was 106 % of control and the T/C (endpoint: mean survival time, dose: 150.0 mg/kg/injection, schedule: Q01DX001 (ip), vehicle: saline) was 101 % of control.
Take `CC[C@@H](C)[C@H]([C@H](CC(=O)N1CCC[C@@H]1[C@@H](OC)[C@H](C)C(=O)N[C@H](Cc1ccccc1)c1nccs1)OC)N(C)C(=O)[C@H](NC(=O)[C@@H](C(C)C)N(C)C)C(C)C`: the T/C runs as follows: (endpoint: median survival time, dose: 1.63 micrograms/kg/injection, schedule: Q01DX005 (ip), vehicle: saline + alcohol) 119 % of control; (endpoint: median survival time, dose: 6.5 micrograms/kg/injection, schedule: Q01DX005 (ip), vehicle: saline + alcohol) 160 % of control; (endpoint: median survival time, dose: 26.0 micrograms/kg/injection, schedule: Q01DX005 (ip), vehicle: saline + alcohol) 86 % of control.
Regarding `Cc1ccc(C(=O)c2ccccc2C(=O)O)cc1O`, the T/C by setting is: under setting [4], 98 % of control; under setting [6], 101 % of control; under setting [8], 106 % of control.
With `Cc1c(Cl)cccc1NC(=O)Nc1cccc2ccccc12`, the T/C is 113 % of control under setting [3]; 93 % of control under setting [4]; 102 % of control under setting [5]; 102 % of control under setting [6]; 96 % of control under setting [7]; 100 % of control under setting [8].
Take `CCCCN(Cl)CCCC`: the T/C (endpoint: mean survival time, dose: 25.0 mg/kg/injection, schedule: Q04DX002 (ip), vehicle: saline with Tween-80) was 92 % of control; the T/C (endpoint: mean survival time, dose: 50.0 mg/kg/injection, schedule: Q04DX002 (ip), vehicle: saline with Tween-80) was 92 % of control; the T/C (endpoint: mean survival time, dose: 100.0 mg/kg/injection, schedule: Q04DX002 (ip), vehicle: saline with Tween-80) is 103 % of control.
In the case of `CC[N+]1(Cc2ccccc2)CC2(CCCCC2)ON2C1CC(C)C2(C)C` (stereo unspecified), the T/C was 92 % of control (endpoint: mean survival time, dose: 25.0 mg/kg/injection, schedule: Q01DX009 (ip), vehicle: saline with Tween-80) and 93 % of control under setting [9].
In the case of `c1ccc2c(c1)ccc1c(C3CO3)cccc12` (stereo unspecified), the T/C was 103 % of control (endpoint: mean survival time, dose: 100.0 mg/kg/injection, schedule: Q01DX005 (ip), vehicle: saline with Tween-80); 93 % of control under setting [3]; 106 % of control (endpoint: mean survival time, dose: 200.0 mg/kg/injection, schedule: Q01DX005 (ip), vehicle: saline with Tween-80); 101 % of control under setting [5]; 95 % of control (endpoint: mean survival time, dose: 400.0 mg/kg/injection, schedule: Q01DX005 (ip), vehicle: saline with Tween-80); 101 % of control under setting [7].
Turning to `O=C(CCl)Nc1cccc2c1CCCC2`, the T/C is, setting by setting: under setting [9], 97 % of control; under setting [3], 94 % of control; under setting [4], 98 % of control; under setting [5], 91 % of control; under setting [6], 96 % of control.

The record behind these values is PubChem BioAssay AID256 (DTP/NCI, 2004).
